The source of these data is patent EP0726257A1, “1-(Hetero)Arylvinyl-5H-2,3-benzodiazepine derivatives useful for the treatment of central nervous system disorders, and benzopyrylium intermediates for their preparation” (EGIS GYOGYSZERGYAR RT., priority 1995, dated 1996).

Read-outs that look alike come from different tables or passages of the source.

For series [1], the system named is "climbing" reaction induced by 5,6,6a,7-tetra-(hydro)-6-(methyl)-4H-dibenzo[de,g]quinoline-10,11-di-(ol){apomorphine}. Briefly: Inhibition of apomorphine-induced climbing according to Puech et al. It is filed as in vivo. On the procedure: (§1) The potential antipsychotic activity of 1-[2'-(substituted) vinyl]-5H-2,3-benzodiazepine derivatives according to the invention and of reference substances was tested according to the method of Puech et al. (Psychopharmacology, 75, 84, [1981] by measuring their inhibiting effect on the "climbing" reaction induced by 5,6,6a,7-tetra-(hydro)-6-(methyl)-4H-dibenzo[de,g]quinoline-10,11-di-(ol){apomorphine}. The results have been expressed as ED50 values. Since the inhibition of the spontaneous motor activity (SMA) is an important characteristic of the antipsychotic drugs, the ED50 values of a number of compounds were determined according to the method of Borsy et al. (Arch. Int. Pharmacodyn., 124, 1, 196).

For series [2], the target named is homophthalazine binding site. Briefly: Displacement of 3H-girisopam from the homophthalazine binding site in rat brain striatal membrane preparation. The conditions noted are these: displacing 5 nM 3H-girisopam. As for the experimental part:
Ki values were calculated according to the following equation: Ki = IC50 :(1 +([L])/(KD)), [formula] wherein KD is the dissociation constant of the labelled ligand-receptor complex, [L] is the concentration of the labelled ligand and IC50 is the half maximal inhibitory concentration of the test compound.
In general terms: Displacement assays read how much labelled ligand stays bound in the presence of the test substance.

A further series deals with Catalepsy in mice. Kind of series: Cataleptic effect in mice (Schlichtegroll). It is filed as in vivo. The conditions noted are these: p.o. On the procedure:
(§2) The cataleptic effect of the compounds was measured both in mice (Schlichtegroll: Arzneim. Forsch., 8, 489, [1958]) and in rats (Morpurgo: Arch. Int. Pharmacodyn., 137, 87, [1962]).

Series [3] deals with mice. Briefly: Acute toxicity (dead/treated animals) in the Irwin test. The class given is in vivo. As for the experimental part:
(§3) The behavioural effects of 1-[2'-(substituted) vinyl]-5H-2,3-benzodiazepine derivatives according to the invention and of reference substances were measured according to the method of Irwin (Psychopharmacology, 13, 222 [1968]). The results and the acute toxicity data (dead/treated animals, shown in brackets) can be seen in the following Table II
(§4) From the above Table II it can be taken that the 1-[2'-(substituted) vinyl]-5H-2,3-benzodiazepine derivatives according to the invention considerably decrease the spontaneous motor activity (SMA) in mice after intraperitoneal or oral administration.

Series [4] concerns rats. Kind of series: Lick-conflict test (Vogel et al.), anxiolytic activity. It is filed as in vivo. The conditions noted are these: Rattus norvegicus, po, rats; read-out: Minimal effective dose [MED] Lick conflict. The text has this: (§5) The anxiolytic activity was studied in rats according to the "lick-conflict" test elaborated by Vogel et al. (Psychopharmacology, 21, 1, [1971] and the elevated plus-maze test described by Pellow (Pellow, J.: Neurosci. Meth. 14, 149, [1985]). The antiaggressive effect was investigated in mice using the "fighting behaviour" method of Tedeschi (J. Pharm. Exp. Ther., 125, 28, [1959]). The minimal effective dose (MED) values and the ED50 values obtained are shown in the following Table V.

In series [5] the test system is spontaneous motor activity of mice. Kind of series: Inhibition of spontaneous motor activity according to Borsy et al. The class given is in vivo. On the procedure:
as §1
The effect of the 1-[2'-(substituted) vinyl]-5H-2,3-benzodiazepine derivatives according to the invention on the spontaneous motor activity was tested according to the method of Borsy et al. Groups consisting of 3 mice were treated orally with different doses of the compounds to be tested. Then the animals were placed into a 10-channel Dews system equipment, wherein the number of interruptions of infrared beam within 30 minutes was counted. […]

Series [6] deals with mice. Kind of series: Fighting behaviour method of Tedeschi, antiaggressive effect. It is filed as in vivo. The conditions noted are these: Mus musculus, po, mice; read-out: ED50 Fighting behaviour.
From the text: as §5

The subject of series [7] is spontaneous motor activity (SMA) in mice. Briefly: Behavioural effects according to Irwin (decrease in spontaneous motor activity). It is filed as in vivo. On the procedure:
as §3, §4

The next series relates to Catalepsy in rats. Kind of series: Cataleptic effect in rats (Morpurgo). It is filed as in vivo. The conditions noted are these: p.o. On the procedure: as §2
Series [8] deals with rats. Kind of series: Elevated plus-maze test (Pellow), anxiolytic activity. The class given is in vivo. The conditions noted are these: Rattus norvegicus, ip, rats; read-out: Minimal effective dose [MED] Elevated + Maze.
From the text: as §5
The anxiolytic activity of these compounds was investigated in the elevated plus maze test. Male rats belonging to the Sprague Dawley strain and weighing 220 to 260 g were used as test animals. The test was carried out with the aid of a wooden plus-shaped maze elevated to a height of 50 cm and containing two enclosed and two open arms (50 cm long and 15 cm wide). After 60 minutes pretreatment the animals were placed into the maze and observed for 5 minutes. The drug effect was expressed as percent increase of the time spent on the open arms and number of open arm entries. The minimum effective dose (MED) which caused a significant increase of the time spent on the open arms was calculated for every substance [Pelow, S., Chopin, P., File, S.E., Briley, M.: J. Neurosci. Methods 14, 149 to 167 [1985]).

Series [9] deals with convulsions caused by 6,7,8,9-tetrahydro-5H-tetrazoloazepine [pentetrazole]. Briefly: Inhibition of pentetrazole-induced convulsions (modified method of Benziger and Hane). The conditions noted are these: Mus musculus, po, mice, read-out: ID50 (the source's name). The class given is in vivo. As for the experimental part: The inhibiting effect against convulsions caused by 6,7,8,9-tetrahydro-5H-tetrazoloazepine [pentetrazole] was defined by the modified method of Benziger and Hane. Groups of male and female mice belonging to the NMRI strain and weighing 20 to 25 g were used. The tonic extensor convulsions of the hind limbs caused by intraperitoneally administered 125 mg/kg of 6,7,8,9-tetrahydro-5H-tetrazoloazepine [pentetrazole] were registered on the animals of groups consisting of 6 to 12 animals. The test compounds and the carrier were administered 1 hour before administering the 6,7,8,9-tetrahydro-5H-tetrazoloazepine [pentetrazole] (Benziger, R., Hane, D.: Arch. Int. Pharmacodyn. 167, 245 [1967]).

Series [10] in a line: Cataleptic effect in mice (Schlichtegroll). The class given is in vivo. The conditions noted are these: mouse, in vivo, Tables III and IV compared, read-out: dose causing catalepsy on mice relative to the spontaneous motor activity (SMA) decreasing ED50 dose. As for the experimental part: as §2

A word on the Ki: it is the equilibrium dissociation constant of an inhibitor or competing ligand from its target. In general, minimal effective dose refers to the smallest amount tested that counted as effective. With `COc1cc2c(cc1OC)C(C=Cc1ccc(N(C)C)cc1)=NN=C(C)C2` [Example 4, 1-[4'-(Dimethylamino)-styryl)-4-[methyl]-7,8-di-[methoxy]-5H-2,3-benzodiazepine], the ED50 in [1] (po; read-out: {apomorphine} Climbing ED50) was found to be 9.1 mg/kg; in [5] (Mus musculus, po; read-out: Spontaneous motor activity SMA ED50), 4.1 mg/kg; in the series with mice [6], 7.4 mg/kg. For the same compound, the affinity in [2] corresponds to a Ki of 11 nM. Moreover, the “Catalepsy in mice Minimal effective dose [MED]” value in the series on Catalepsy in mice is on record as more than 100 mg/kg. Further, the “acute toxicity (dead/treated animals)” value with mice [3] (300 mg/kg i.p.) and with mice [3] (1000 mg/kg p.o.) was 1/5 throughout. In addition, the minimal effective dose stood at 0.3 mg/kg with rats [4] and 5 mg/kg with rats [8]. Further, the Behaviour entry in [7] (300 mg/kg i.p.) and in [7] (1000 mg/kg p.o.) was “+ +” in each case. Also, the “Catalepsy in rats Minimal effective dose [MED]” value in the series on Catalepsy in rats was more than 100 mg/kg.

On to `NC(=O)N1c2ccccc2C=Cc2ccccc21` [carbamazepine, 5H-dibenz[b,f]azepine-5-carboxamide], for which the ED50 in series [9] was found to be 7.1 mg/kg.

For `CN(C)CCCN1c2ccccc2Sc2ccc(Cl)cc21` [chlorpromazine, 2-(chloro)-10-(3'-〈dimethylamino〉-propyl)-phenothiazine, reference compound], the ED50 in [1] (po, read-out: {apomorphine} Climbing ED50) came to 1.1 mg/kg; in series [5] (Mus musculus, po, read-out: Spontaneous motor activity SMA ED50) it was 2 mg/kg. For the same compound, the selectivity ratio in series [10] was 5. The “Catalepsy in mice Minimal effective dose [MED]” value in the series on Catalepsy in mice stood at 10 mg/kg. In addition, the “Catalepsy in rats Minimal effective dose [MED]” value with Catalepsy in rats is listed as 20 mg/kg.
